Data taken from patent US20020165270A1, “Use of a pharmaceutical composition for treating and/or preventing ischemia” (priority 1997, published 2002).

Tests used:
[1] = test system: complex I of the mitochondria; assay: Protection of complex I inhibited by Amytal, measured via the RCR; type: biochemical; settings: for Protection of complex I (%): complex I 58% inhibited by 0.5 mM Amytal, 60 minute incubation, Ginkor Fort 0.3 mg/ml, Bilobalide 0.8 μg/ml, Reparil 75 ng/ml, Nafthoquinone 10^−7 M, Praxilene 10^−7 M, no medicament = 0%
Method: (§1) The process of the oxidative phosphorylation of ATP is a complex process which involves different enzyme complexes or electron transporters, which generate a proton gradient (complexes I, III and IV), ATP synthases (complex V), which is directly responsible for synthesizing ATP, and adenine translocase, which is the transporter which is required for importing ADP and exporting ATP (FIG. 4).
Complex I of the mitochondria was 58% inhibited by the presence of 0.5 mM Amytal. Under these conditions, the presence of the molecules at the indicated concentrations (60 minute incubation) results in an inhibition which is markedly less pronounced, with this having been expressed in percentage protection as compared with the mitochondria without medicament, which are regarded as having 0% protection.

[2] = test system: mitochondria isolated from the livers of untreated rats; assay: RCR of mitochondria isolated from livers of untreated rats, preincubated one hour with the medicaments; type: biochemical, rat; settings: for way in which the RCR is increased (class I / class II): liver mitochondria of untreated rats preincubated for one hour; for Protective effect on the RCR (%): class I molecules, final concentrations: Ginkor Fort 0.3 mg/ml, Bilobalide 0.8 μg/ml, Reparil 75 ng/ml, Naphthoquinone 10^−7 M, Praxilene 10^−7 M, one hour preincubation
Method: (§2) Different concentrations of active compounds of the invention (bilobalide) were tested on the RCR of the mitochondria which were isolated from rat brains. Five concentrations were employed: 4, 6, 8, 10 and 12 mg/kg of treated patient (rat). The rats were given these doses of bilobalide orally for 14 days. The mitochondria were isolated using the method described by Nowicki et al. (J. Cerebral Blood Flow and Metabolism, 2, pp. 33-40 (1982)). The respiration of the mitochondria is measured in a Clark oxygen electrode which is connected to a recording device. The RCR represents the respiratory control. It denotes the ratio between the consumption of oxygen in the presence of endogenous substrates (glutamate/malate) and the consumption after the ADP has been phosphorylated to ATP. This technique was developed by Chance and Williams (Nature, 175, pp. 1120-1121 (1955)). A dosedependent effect is obtained, with an increase of the RCR, of 3.7 in the case of the controls, to an RCR of 4.6 in the case of the 8 and 10 mg/kg concentrations. A maximum increase of 24% is obtained at 10 mg/kg.
Each of the active compounds of the invention can, like bilobalide, increase the RCR of mitochondria which have been isolated from the livers of untreated rats when the mitochondria are preincubated for one hour in the presence of these medicaments. The active compounds can therefore act directly on the mitochondria.

brain mitochondria [3] = assay: RCR of brain mitochondria of orally treated rats, normal conditions; type: in vivo, rat
Method: as §2

brain mitochondria [4] = assay: RCR of brain mitochondria of treated rats after 15 minute ischemia; type: in vivo, rat; settings: 10 mg/kg per os for 14 days; 15 minute ischemia by decapitation; glutamate/malate; controls 3
Method: A 15 minute ischemia was performed on control rats and rats which have been treated with active compounds of the invention (bilobalides) for 14 days. The ischemia is performed by decapitation. The rats were treated per os with bilobalide doses of 10 mg/kg for 14 days. When the RCR is measured in the presence of glutamate/malate in the case of a 15 minute ischemia, an RCR of 3 is observed in the case of the controls, with an RCR of 3.9 being observed in the case of the treated rats. The active compound therefore has a protective action on the decrease in respiratory activity which is induced by the ischemia. This protection is manifested through the activity of complex I and of the mitochondrial transport chain. The level of respiratory control which is measured in the presence of glutamate/malate indirectly mirrors the activity of complex I of the electron transfer chain.

mitochondrial complex I = assay: Activity of mitochondrial complex I (ferricytochrome C reduction) in brain mitochondria of treated rats; type: in vivo, rat; settings: 10 mg/kg per os for 14 days; after 15 minute ischemia of the brain; controls 36
Method: The measurement carried out on the mitochondrial complex I was performed by first of all sonicating the mitochondria in order to enable the assay substrates to gain access to the complex I. The latter is assayed by following the reduction of ferricytochrome C at 550 nm. The mitochondrial suspension, which is present in a […] K phosphate buffer, pH 7.4, containing MgCl2, 10 μm of cytochrome C and 2.5 mg of bovine albumin/ml, is sonicated for 30 seconds at 0° C. 2 mM of KCW [sic] is added and the reaction is started by adding 7.5 mM NADH. The mitochondria are incubated at 37° C. and the reduction of the ferricyanide [sic] is followed at 550 nm. A correction is made for the reduction of the cytochrome C in the presence of rotenone, which inhibits complex I. The results are expressed in μmol of ferricytochrome C reduced per minute.
The activity of complex I was measured on the mitochondria of rats which had been treated per os for 14 days with 10 mg of bilobalide/kg, and after a 15minute ischemia of the brain. An activity of 36 mU/mg of protein is obtained in the case of the control rats, whereas the mitochondria from treated rats have an activity of 44 mU/mg of protein.

liver mitochondria [5] = assay: RCR of liver mitochondria of rats treated per os; type: in vivo; settings: rat liver mitochondria; 8 mg/kg per os for 14 days; controls 7.6
Method: (§3) The active compound of the invention (bilobalide) was administered per os to rats for 14 days at concentrations of 8 mg/kg of patient (rat). The liver mitochondria of these rats were isolated using the method described by Remacle (J. Cell. Biol. 79, 291, 1978). […] A 10 minute ischemia was performed on the livers by perfusion in a medium consisting of 0.137 M NaCl, 5.4 mM KCl, 0.8 mM MgSO4, 11 mM glucose, 0.34 mM Na2HP03, 24.4 mM NaHCO3, 6.35 mM KH2PO4 and 8 mg of bilobalide/l. The medium is first of all degassed under an atmosphere containing 95% N2 and 5% CO2. The mitochondria are isolated and their respiratory activity is determined.

liver mitochondria [6] = assay: RCR of liver mitochondria after 10 minute ischemia of the perfused liver; type: in vivo, rat; settings: 8 mg/kg per os for 14 days; 10 minute liver ischemia, perfusion medium with 8 mg of bilobalide/l; controls 3.73
Method: as §3
For the controls, the rats were given water for 14 days and the livers were perfused with the same solution as for the tests.

[7] = test system: complex III of the mitochondria; assay: Protection of complex III inhibited by a specific inhibitor, measured via the RCR; type: biochemical; settings: Ginkor Fort 0.3 mg/ml, Bilobalide 0.8 μg/ml, Reparil 75 ng/ml, Nafthoquinone 10^−7 M, Praxilene 10^−7 M
From the text: as §1

Compound	way in which the RCR is increased (class I / class II) [2]	Protective effect on the RCR (%) [2]	Protection of complex I (%) [1]	Protection of complex III (%) [7]	other results
CCC1(CCC(C)C)C(=O)NC(=O)NC1=O [Amytal]					inhibition of complex I of the mitochondria ([1]; 0.5 mM Amytal): 58%
aescin	increase the RCR by decreasing stage 4 of respiration				
COc1ccc(-c2cc(=O)c3c(O)cc(O[C@@H]4O[C@H](CO[C@@H]5O[C@@H](C)[C@H](O)[C@@H](O)[C@H]5O)[C@@H](O)[C@H](O)[C@H]4O)cc3o2)cc1O [diosmin]	increase the RCR by decreasing stage 4 of respiration				
o-(hydroxyethyl) rutosides [hydroxyethylrutosides]	increase the RCR by increasing stage 3 of respiration				
CC(C)(C)[C@]1(O)CC2OC(=O)CC23C(=O)OC2OC(=O)[C@H](O)C231 (stereo partly drawn) [Bilobalide, bilobalide]	increase the RCR by decreasing stage 4 of respiration	+22.7%	27.5%	47.9%	maximum increase of the RCR (brain mitochondria [3]; 10 mg/kg orally for 14 days, versus controls): 24%; RCR (brain mitochondria [3]; rat brain mitochondria, 8 and 10 mg/kg orally for 14 days, glutamate/malate, controls 3.7): 4.6; RCR (brain mitochondria [4]): 3.9; activity of complex I (mitochondrial complex I): 44 mU/mg of protein; RCR (liver mitochondria [5]): 13.25; RCR (liver mitochondria [6]): 5.24
O=C1C=CC(=O)c2ccccc21 [Naphthoquinone, Nafthoquinone]	increase the RCR by decreasing stage 4 of respiration	+19.7%	14.1%	46.6%	
